{"source": "paper PMC8175350", "about": "“Drug repurposing screens identify chemical entities for the development of COVID-19 interventions” (Nature Communications, 2021)", "key": {"SARS-CoV-2 [1]": {"test_system": "SARS-CoV-2", "assay": "microbe, parasite or virus in culture", "type": "cell-based", "conditions": "for %infected: HeLa-ACE2, replicates n=1, n=2"}, "[2]": {"assay": "Uninfected HeLa-ACE2 24 h live/dead cytotoxicity counter screen", "type": "cell-based, human", "conditions": "human, uninfected HeLa-ACE2 cells, reconfirmed hits; read-out: HeLa-ACE2 Uninf. cells CC50"}, "HeLa-ACE2 cells [3]": {"test_system": "HeLa-ACE2 cells", "assay": "Uninfected HeLa-ACE2 24 h live/dead cytotoxicity counter screen", "type": "cell-based, human", "conditions": "for cytotox: HeLa-ACE2"}, "SARS-CoV-2 [4]": {"test_system": "SARS-CoV-2", "assay": "microbe, parasite or virus in culture", "type": "cell-based", "conditions": "for %infected: Calu-3, replicates n=1, n=2"}, "SARS-CoV-2 [5]": {"test_system": "SARS-CoV-2", "assay": "microbe, parasite or virus in culture", "type": "cell-based", "conditions": "for TOA: HeLa-ACE2, replicates n=1"}, "SARS-CoV-2 [6]": {"test_system": "SARS-CoV-2", "type": "cell-based", "conditions": "72 hpi"}, "HeLa-ACE2 cells [7]": {"test_system": "HeLa-ACE2 cells", "assay": "Total cell count in the HeLa-ACE2 TOA assay", "type": "cell-based", "conditions": "Homo sapiens", "from_the_text": "Supplement 41467_2021_23328_MOESM3_ESM.xlsx, sheet \"Table S1\" | column: HeLa-ACE2 TOA cell count"}, "Calu-3 cells [8]": {"test_system": "Calu-3 cells"}, "HeLa-ACE2 cells [9]": {"test_system": "HeLa-ACE2 cells", "assay": "cells", "conditions": "Homo sapiens, HeLa-ACE2, read-out: HeLa-ACE2 cell count EC50 GeoMean"}, "Calu-3 cells [10]": {"test_system": "Calu-3 cells", "assay": "cells", "conditions": "Homo sapiens"}, "in vitro": {"assay": "in vitro", "conditions": "human"}, "[11]": {"conditions": "cited from earlier work"}}, "note": "“And” between values parts separate entries of the source, which are not always exact repeats. Equal entries are not always repeated. Where two headings read alike, the source gives them in different places.", "data": [{"smiles": "O=c1nc(NO)ccn1[C@@H]1O[C@H](CO)[C@@H](O)[C@H]1O", "note": "[N-hydroxycytidine]", "values": [{"measurement": "%infected", "setting": "SARS-CoV-2 [1]; concentration log[M] -5.01818", "result": "-95.9068% and -95.703% and -94.602% and -97.3369% and -96.6026% and -97.2941%"}, {"measurement": "%infected", "setting": "SARS-CoV-2 [1]; concentration log[M] -5.54106", "result": "-65.3775% and -59.3515% and -63.9298% and -52.8807% and -12.9328% and -65.202%"}, {"measurement": "%infected", "setting": "SARS-CoV-2 [1]; concentration log[M] -6.01818", "result": "-30.1084% and -28.1968% and -26.2247% and 6.562% and 13.7937% and -28.207%"}, {"measurement": "%infected", "setting": "SARS-CoV-2 [1]; concentration log[M] -6.42366", "result": "-20.845% and -20.4031% and 6.3056% and 22.7531% and 23.3232% and -10.0334%"}, {"measurement": "%infected", "setting": "SARS-CoV-2 [1]; concentration log[M] -6.90066", "result": "-9.321% and -9.37% and 63.7122% and 19.7824% and -5.072% and -8.1%"}, {"measurement": "%infected", "setting": "SARS-CoV-2 [1]; concentration log[M] -7.37799", "result": "-5.474% and -4.047% and 10.6164% and 29.7413% and 17.9839% and -7.442%"}, {"measurement": "%infected", "setting": "SARS-CoV-2 [1]; concentration log[M] -7.85511", "result": "-5.151% and -0.8478% and 5.043% and 11.903% and -2.081% and 8.512%"}, {"measurement": "%infected", "setting": "SARS-CoV-2 [1]; concentration log[M] -8.34746", "result": "2.419% and 1.409% and -2.874% and 18.1053% and 10.6681% and -1.579%"}, {"measurement": "Emax", "setting": "SARS-CoV-2 [1]; Severe acute respiratory syndrome coronavirus 2, HeLa-ACE2, 24 h, curve plateau at infinite concentration, read-out: HeLa-ACE2 CoV-2 Sinf Average", "result": 100, "unit": "%"}, {"measurement": "EC50", "setting": "SARS-CoV-2 [1]; Severe acute respiratory syndrome coronavirus 2, HeLa-ACE2, reconfirmed hits, read-out: HeLa-ACE2 SARS-CoV-2 EC50", "result": 2.07, "unit": "µM"}, {"measurement": "CC50 at 24 h", "setting": "[2]", "result": "> 37.5", "unit": "µM"}, {"measurement": "cytotox", "setting": "HeLa-ACE2 cells [3]; concentration log[M] -4.40012, replicates n=1, n=2", "result": "-52.5894 and -47.3606 and -59.8571 and -45.9651 and -54.0657 and -40.7828"}, {"measurement": "cytotox", "setting": "HeLa-ACE2 cells [3]; concentration log[M] -4.82681, replicates n=1, n=2", "result": "-38.4391 and -39.4796 and -38.1429 and -39.2039 and -43.0802 and -30.2326"}, {"measurement": "cytotox", "setting": "HeLa-ACE2 cells [3]; concentration log[M] -5.30277, replicates n=1, n=2", "result": "-30.8534 and -12.119 and -16 and -17.6118 and -29.9408 and -19.0017"}, {"measurement": "cytotox", "setting": "HeLa-ACE2 cells [3]; concentration log[M] -5.82681, replicates n=1, n=2", "result": "-4.449 and -6.9145 and -4 and -19.1385 and -7.754 and 0.2836"}, {"measurement": "cytotox", "setting": "HeLa-ACE2 cells [3]; concentration log[M] -6.25414, replicates n=1, n=2", "result": "-16.849 and -13.6059 and -16.5714 and -13.1407 and -8.078 and -16.506"}, {"measurement": "cytotox", "setting": "HeLa-ACE2 cells [3]; concentration log[M] -6.73049, replicates n=1, n=2", "result": "-10.2845 and 8.996 and -3.286 and -2.1265 and -9.908 and -9.472"}, {"measurement": "cytotox", "setting": "HeLa-ACE2 cells [3]; concentration log[M] -7.25727, replicates n=1, n=2", "result": "1.386 and -4.089 and -25.4286 and -12.8135 and -14.6473 and -10.7204"}, {"measurement": "cytotox", "setting": "HeLa-ACE2 cells [3]; concentration log[M] -7.68403, replicates n=1, n=2", "result": "-8.534 and -5.279 and -6.286 and -2.672 and -11.8471 and 1.418"}, {"measurement": "cytotox", "setting": "HeLa-ACE2 cells [3]; concentration log[M] -8.16052, replicates n=1, n=2", "result": "-5.325 and 4.535 and -3.571 and -9.869 and -22.4017 and -12.0817"}, {"measurement": "cytotox", "setting": "HeLa-ACE2 cells [3]; concentration log[M] -8.59517, replicates", "result": "-2.261 and -3.197 and -3.429 and -6.707 and -1.077 and -11.9682"}, {"measurement": "HeLa-ACE2 uninfected cytotoxicity Sinf Average", "setting": "HeLa-ACE2 cells [3]; curve plateau at infinite concentration", "result": -100, "unit": "%"}, {"measurement": "%infected", "setting": "SARS-CoV-2 [4]; concentration log[M] -5.00096", "result": "-104.882% and -104.039% and -104.073% and -87.0522% and -95.3104% and -95.1991%"}, {"measurement": "%infected", "setting": "SARS-CoV-2 [4]; concentration log[M] -5.47808", "result": "-102.424% and -94.8216% and -96.2613% and -79.6455% and -88.2245% and -78.3438%"}, {"measurement": "%infected", "setting": "SARS-CoV-2 [4]; concentration log[M] -6.08014", "result": "-48.1883% and -55.6504% and -62.6482% and -43.1506% and -54.549% and -44.7088%"}, {"measurement": "%infected", "setting": "SARS-CoV-2 [4]; concentration log[M] -6.42922", "result": "-25.3967% and -10.7735% and -12.1745% and -21.3919% and -25.2933% and -26.102%"}, {"measurement": "%infected", "setting": "SARS-CoV-2 [4]; concentration log[M] -6.90623", "result": "2.702% and -5.189% and -14.5454% and -5.7089% and 20.5633% and -23.5818%"}, {"measurement": "%infected", "setting": "SARS-CoV-2 [4]; concentration log[M] -7.50836", "result": "7.0582% and -3.1% and 10.044% and -11.1778% and -10.264% and 16.3735%"}, {"measurement": "%infected", "setting": "SARS-CoV-2 [4]; concentration log[M] -7.85886", "result": "-6.015% and 34.2889% and -1.001% and -2.481% and -24.9588% and 14.4808%"}, {"measurement": "%infected", "setting": "SARS-CoV-2 [4]; concentration log[M] -8.33602", "result": "34.4513% and -7.593% and -0.3699% and -1.01% and 8.564% and 15.1555%"}, {"measurement": "Emax", "setting": "SARS-CoV-2 [4]; Severe acute respiratory syndrome coronavirus 2, Calu-3, 48 h, curve plateau at infinite concentration, read-out: Calu-3 CoV-2 Sinf Average", "result": 102, "unit": "%"}, {"measurement": "EC50", "setting": "SARS-CoV-2 [4]; Severe acute respiratory syndrome coronavirus 2, Calu-3, reconfirmed hits, read-out: Calu-3 SARS-CoV-2 EC50", "result": 0.803, "unit": "µM"}, {"measurement": "TOA", "setting": "SARS-CoV-2 [5]; concentration log[M] -5.01818", "result": "-88.6412 and -82.7703 and -80.6006"}, {"measurement": "TOA", "setting": "SARS-CoV-2 [5]; concentration log[M] -5.54106", "result": "-32.1719 and -27.0134 and -25.6358"}, {"measurement": "TOA", "setting": "SARS-CoV-2 [5]; concentration log[M] -6.01818", "result": "-19.1217 and -14.6661 and -4.943"}, {"measurement": "TOA", "setting": "SARS-CoV-2 [5]; concentration log[M] -6.42366", "result": "4.0678 and -1.902 and 3.9754"}, {"measurement": "TOA", "setting": "SARS-CoV-2 [5]; concentration log[M] -6.90066", "result": "9.161 and 4.654 and 6.517"}, {"measurement": "TOA", "setting": "SARS-CoV-2 [5]; concentration log[M] -7.37799", "result": "8.185 and 12.3603 and -5.097"}, {"measurement": "TOA", "setting": "SARS-CoV-2 [5]; concentration log[M] -7.85511", "result": "-1.637 and 10.875 and -15.0843"}, {"measurement": "TOA", "setting": "SARS-CoV-2 [5]; concentration log[M] -8.34746", "result": "4.125 and 6.481 and 1.9398"}, {"measurement": "Emax", "setting": "SARS-CoV-2 [5]; Severe acute respiratory syndrome coronavirus 2, HeLa-ACE2, 10 h, curve plateau at infinite concentration, read-out: HeLa-ACE2 TOA CoV-2 Sinf Average", "result": 100, "unit": "%"}, {"measurement": "EC50", "setting": "SARS-CoV-2 [5]; Severe acute respiratory syndrome coronavirus 2, HeLa-ACE2, read-out: HeLa-ACE2 TOA CoV-2 EC50 GeoMean", "result": 4.06, "unit": "µM"}, {"measurement": "reduction in apical viral loads", "setting": "SARS-CoV-2 [6]", "result": "> 1", "unit": "log"}, {"measurement": "Emax", "setting": "HeLa-ACE2 cells [7]; HeLa-ACE2, 10 h, read-out: HeLa-ACE2 TOA cell count Sinf Average", "result": 100, "unit": "%"}, {"measurement": "EC50", "setting": "HeLa-ACE2 cells [7]; HeLa-ACE2, read-out: HeLa-ACE2 TOA cell count EC50 GeoMean", "result": "> 9.59", "unit": "µM"}, {"measurement": "uninfected Calu-3 CC50", "setting": "Calu-3 cells [8]", "result": "29.85 ×÷ 1 (n=2) μM"}, {"measurement": "Calu-3 uninfected cytotoxicity Sinf Average", "setting": "Calu-3 cells [8]; human, 48 h", "result": -100, "unit": "%"}, {"measurement": "EC50", "setting": "HeLa-ACE2 cells [9]", "result": "> 9.59", "unit": "µM"}, {"measurement": "Emax", "setting": "Calu-3 cells [10]; Calu-3, 48 h, read-out: Calu-3 cell count Sinf Average", "result": 100, "unit": "%"}, {"measurement": "EC50", "setting": "Calu-3 cells [10]; Calu-3, read-out: Calu-3 cell count EC50 GeoMean", "result": 2.3, "unit": "µM"}, {"measurement": "CC50 at 48 h", "setting": "in vitro; Calu-3 Uninf. cells CC50 (µM)", "result": "> 29.9", "unit": "µM"}, {"measurement": "CC50 at 48 h", "setting": "in vitro; Calu-3 uninfected cytotoxicity CC50 GeoMean", "result": 29.9, "unit": "µM"}, {"measurement": "Approx. t1/2", "setting": "[11]; NHP, ref [45]", "result": 1, "unit": "h"}, {"measurement": "Cmax", "setting": "[11]; in vivo, po", "result": 3.3, "unit": "µM"}]}]}
